Measurements from US8802894B2, “Process for the preparation of aqueous solutions of methylglycine-N,N-diacetic acid trialkali metal salts” (BASF SE, priority 2012, dated 2014).

Columns and labels:
[1] = solubility limit / achievable concentration in water; type: physicochemical
[2] = saturation concentration of aqueous solutions, L-enantiomer versus D,L-racemate; type: physicochemical; conditions: aqueous solution
Text: The L-enantiomer of α-alanine is available at low cost and leads, through Strecker synthesis, as a result of reaction with hydrocyanic acid and formaldehyde in aqueous solution, to L-α-alanine-N,N-diacetonitrile, and saponification thereof with a base leads to aqueous solutions which not only have a higher saturation concentration of the L-enantiomer compared to the D,L-racemate of the MGDA trialkali metal salts, but which also produce a readily crystallizing solid by means of crystallization.

Row | solubility limit [1] | solubility compared to the racemate [2] | Compound
1 | ca. 18 % by weight |  | C[C@H](N)C(=O)O [α-alanine]
2 |  | higher | methylglycine-N,N-diacetic acid trialkali metal salt [L-MGDA trialkali metal salt]
